Patent US8283377B2, “Method for inhibiting blood vessel stenosis” (China Medical University, priority 2011, dated 2012)
Where “and” joins values, the source holds several entries; their conditions need not be identical. Equal values may be shown once. Marks after values point to notes of the source that are not given here.

How the values were obtained:
[1] = test system: carotid artery of Sprague-Dawley (SD) rats after balloon catheter injury; assay: Animal test - treatment of carotid artery injury induced blood vessel stenosis; type: in vivo, rat; details: for Blood vessel neointimal layer area /middle layer area (intima/media ratio) / Blood vessel neointimal layer area: day 14
Experimental: Sprague-Dawley (SD) rats (purchased from BioLasco Taiwan Co. Ltd, Taipei) were used in the present experiment to carry out the animal test. The rats were bred in an environment with 12 hours light, followed by 12 hours dark, and fed to 10-weeks old (body weight: about 300 to 400 g). Then, carotid artery injury surgery and the following experiments were carried out. The present experiment followed the Animal Protection Act and the provisions of Animal Management Committee of National Dong Hwa University.
The SD rat was anesthetized by 320 mg/kg-body-weight chloral hydrate (purchased from Fluka), and then the abdominal area was faced upwards, and the limbs were fixed with a breathable tape on a surgery plate. The Casscells' method (Casscells et al., Migration of smooth muscle and endothelial cells. Critical events in restenosis, Circulation, 1992; 86; 723-729, which is incorporated hereinto by reference) was used to carry out the carotid artery injury surgery. First, the skin of the rat was cut open with a scissor from the midline of the neck jaw to the chest area, and then the connective tissue at the right side of the rat neck was separated from the muscle layer to expose the blood vessel next to the trachea, and the blood vessel is the common carotid artery. The right side common carotid artery, internal carotid artery, and external carotid artery were separated, and the connective tissue at the junction of these three blood vessels was completely striped. Then, the external carotid artery was tied up with a 2/0 sized silk thread, and the common carotid artery was clipped by a vascular clip to avoid heavy bleeding. A gap was made by cutting the external carotid artery with a microscopic scissor, and a balloon catheter (Cather French Size 2F, purchased from Edwards Lifescience) was implanted through the gap. The balloon catheter was inserted 5 cm into the common carotid artery, and 0.2 mL of a physiological saline solution was filled into the balloon catheter to expend the catheter. Then, the balloon catheter was pulled out to the gap of the external carotid artery, and the physiological saline solution was drawn out from the balloon catheter. After the common carotid artery was injured repeatedly for three times by this method, the gap of the external carotid artery and the bifurcation point between the external carotid artery and the common carotid artery were tied up with a 2/0 sized silk thread. Finally, the wound of the rat was stitched up and spread with an iodine solution. After the rat woke up, the carotid artery injury surgery was completed.
Two weeks after the carotid artery injury surgery, the rat was sacrificed with excess chloral hydrate (640 mg/kg-body weight). PBS (300 mL) was injected into the left ventricle of the rat using the heart perfusion method and flowed out from the right ventricle through systemic circulation. Neutral formalin (200 mL, 10 vol %) was injected into the left ventricle of the rat to immobilize the whole body tissue. The common carotid artery immobilized by formalin was removed and soaked in a 10 vol % neutral formalin solution.
The common carotid artery was divided into four sections and labeled with A, B, C, and D from the head to the heart. Each section was 4 mm in length and was placed in an embedding cassette, and then an automatic tissue processor (purchased from Sakura) was used to process the tissue. The process procedure was 1 hour in a 10 vol % formalin solution, 30 minutes in water, 1 hour in 80 vol % alcohol, 3 hours in 95 vol % alcohol, 4 hours in 100 vol % alcohol, 3 hours in xylene, and 3 hours in paraffin. After the tissue process procedure was completed, the tissue was wrapped by paraffin, and the tissue biopsy was carried out by a slicer (purchased from Lica) with a cut of 8 μm thickness. Immunohistochemical stain and H&E stain on the biopsy were carried out. […]

[2] = test system: rat aortic smooth muscle cell line A7r5; assay: Inhibiting proliferation of smooth muscle cells - cell cycle analysis (propidium iodide flow cytometry); type: cell-based; details: 24 hours
Experimental: (§1) A rat aortic smooth muscle cell line A7r5 was used to carry out the present experiment. A Dulbecco's modified Eagle's medium (DMEM, purchased from Biowest) was used as a general culture medium. The medium was added with 4 mM of L-glutamine, 1.5 g/L sodium bicarbonate, 4.5 g/L glucose, and 10 wt % fetal bovine serum. The A7r5 smooth muscle cells were cultured in a 75 cm^2 petri dish, and 12 mL of the culture medium was added thereinto. The cells were placed and incubated in a cell incubator containing 5 vol % of carbon dioxide at 37° C. After the dish was fully covered by the grown cells, the medium was replaced once every 3 days, and 0.5 wt % trypsin was used for subculture.
(§2) In addition, a culture medium containing n-butylidenephthalide was prepared. Herein, n-butylidenephthalide was dissolved in dimethyl sulfoxide (purchased from Sigma), and solutions with n-butylidenephthalide concentrations of 0, 25, 50, 100, 150, and 200 mg/mL were prepared, and the solutions were stored at −20° C. When used to prepare a medium, the solutions were diluted by 1000 times with the general culture medium used for incubating smooth muscle cells to prepare a culture medium containing 0, 25, 50, 100, 150, or 200 μg/mL of n-butylidenephthalide.
An inhibition test on the cell cycle progression of smooth muscle cells was carried out. Because the cellular DNA content is different in each cell cycle phase, the amount of DNA can be used to evaluate the cell cycle phase in which the cell proceeds. In another aspect, because propidium iodide can bind to DNA, and it can emit red fluorescent light with a wavelength of 625 nm after being excited by light with a wavelength of 488 nm, thus, propidium iodide was used as a fluorescent staining agent in the present experiment, and the red fluorescent intensity represented the amount of DNA, thereby determining which phase the cell was in during the cell cycle.
The rat aortic smooth muscle cell line A7r5 was inoculated in a 6-hole culture dish (density: 1×10^5 cells/hole). After the cells were cultured for 24 hours, the medium was replaced by a medium containing n-butylidenephthalide with a concentration of 0, 25, or 50 μg/mL to culture the smooth muscle cells. After another 24 hours, the cells were fixed with 70 vol % alcohol, and a phosphate buffer solution (PBS) was used to rinse the cells. Finally, propidium iodide (a solution containing 955 μL 1×PBS, 5 μL Triton X-100 (0.5 wt %, purchased from Sigma), 20 μL RNase A (10 mg/mL, purchased from Sigma), and 20 μL propidium iodide (1 mg/mL, purchased from Sigma)) was used to stain the cells for 15 minutes. Then, a flow cytometry (FC500, Beckman) was used to scan and collect 10,000 cells. Multicycle for Windows software (Phoenix Flow Systems) was used to analyze cellular cell cycle.

[3] = test system: rat aortic smooth muscle cell line A7r5; assay: Inhibiting proliferation of smooth muscle cells - cell counting analysis (trypan blue); type: cell-based; details: 48 hours
Experimental: as §1, §2
The rat aortic smooth muscle cell line A7r5 was inoculated in a 6-hole culture dish (density: 1×10^5 cells/hole). After the cells were cultured for 24 hours, the medium was replaced by a medium containing n-butylidenephthalide with a concentration of 0, 25, 50, 100, 150, or 200 μg/mL to culture the smooth muscle cells. After another 48 hours, the cells were observed by an inverted microscope, and the cells were detached by 0.5 wt % trypsin. Then, 20 μL of the cell suspension was taken and mixed evenly with 20 μL trypan blue, and finally, 10 μL of the mixture was collected and added onto a blood cell counting plate. The cell number was counted by a microscope under 100× magnifications to evaluate the inhibition of n-butylidenephthalide on the growth of the smooth muscle cells.

## CCC/C=C1\OC(=O)c2ccccc21 [n-butylidenephthalide]
[1]; 60 mg/kg-body weight
  inhibition of blood vessel stenosis (in words): no significant inhibition effect
  proportion of the rats whose increased area of the blood vessel neointimal layer was under 1×10^5 μm^2: 0%
  Blood vessel neointimal layer area /middle layer area (intima/media ratio): 1.3 +/− 0.3
[1]; 60 mg/kg-body weight, n = 6
  number of rats with increased neointimal area 0~50,000 μm^2: 0
  number of rats with increased neointimal area 50,000~100,000 μm^2: 0
  number of rats with increased neointimal area 100,000~150,000 μm^2: 4
  number of rats with increased neointimal area Above 150,000 μm^2: 2
  proportion of rats with increased neointimal area 100,000~150,000 μm^2: 66.7%
  proportion of rats with increased neointimal area Above 150,000 μm^2: 33.3%
[1]; 150 mg/kg-body weight
  inhibition of blood vessel stenosis (in words): significantly be inhibited
  inhibition of blood vessel stenosis compared with the sham group (intima/media ratio): 36.7%
  inhibition of blood vessel stenosis compared with the sham group (neointimal layer area): 36.3%
  proportion of the rats whose increased area of the blood vessel neointimal layer was under 1×10^5 μm^2: 50%
[1]; 150 mg/kg-body weight, P < 0.05
  Blood vessel neointimal layer area /middle layer area (intima/media ratio): 0.81 +/− 0.14*
[1]; 150 mg/kg-body weight, n = 6
  number of rats with increased neointimal area 0~50,000 μm^2: 0
  number of rats with increased neointimal area 50,000~100,000 μm^2: 3
  number of rats with increased neointimal area 100,000~150,000 μm^2: 3
  number of rats with increased neointimal area Above 150,000 μm^2: 0
  proportion of rats with increased neointimal area 50,000~100,000 μm^2: 50%
  proportion of rats with increased neointimal area 100,000~150,000 μm^2: 50%
[1]; 300 mg/kg-body weight
  inhibition of blood vessel stenosis (in words): significantly be inhibited
  inhibition of blood vessel stenosis compared with the sham group (intima/media ratio): 57.8%
  inhibition of blood vessel stenosis compared with the sham group (neointimal layer area): 56.2%
  proportion of the rats whose increased area of the blood vessel neointimal layer was under 1×10^5 μm^2: 83.3%
[1]; 300 mg/kg-body weight, P < 0.01
  Blood vessel neointimal layer area /middle layer area (intima/media ratio): 0.54 +/− 0.24**
[1]; 300 mg/kg-body weight, n = 6
  number of rats with increased neointimal area 0~50,000 μm^2: 2
  number of rats with increased neointimal area 50,000~100,000 μm^2: 3
  number of rats with increased neointimal area 100,000~150,000 μm^2: 1
  number of rats with increased neointimal area Above 150,000 μm^2: 0
  proportion of rats with increased neointimal area 0~50,000 μm^2: 33.3%
  proportion of rats with increased neointimal area 50,000~100,000 μm^2: 50.0%
  proportion of rats with increased neointimal area 100,000~150,000 μm^2: 16.7%
[1]; carotid artery Section A, 60 mg/kg-body weight abdominal injection, days 1,3,5,7,9,11
  Blood vessel neointimal layer area: 164528 +/− 81467 μm^2
[1]; carotid artery Section A, 150 mg/kg-body weight abdominal injection
  Blood vessel neointimal layer area: 75272 +/− 36346 μm^2
[1]; carotid artery Section A, 300 mg/kg-body weight abdominal injection
  Blood vessel neointimal layer area: 53118 +/− 33403 μm^2
[1]; carotid artery Section B, 60 mg/kg-body weight abdominal injection
  Blood vessel neointimal layer area: 168355 +/− 37686 μm^2
[1]; carotid artery Section B, 150 mg/kg-body weight abdominal injection
  Blood vessel neointimal layer area: 119827 +/− 35005 μm^2
[1]; carotid artery Section B, 300 mg/kg-body weight abdominal injection
  Blood vessel neointimal layer area: 76551 +/− 45327 μm^2
[1]; carotid artery Section C, 60 mg/kg-body weight abdominal injection
  Blood vessel neointimal layer area: 138260 +/− 36681 μm^2
[1]; carotid artery Section C, 150 mg/kg-body weight abdominal injection
  Blood vessel neointimal layer area: 93111 +/− 19875 μm^2
[1]; carotid artery Section C, 300 mg/kg-body weight abdominal injection
  Blood vessel neointimal layer area: 61150 +/− 27899 μm^2
[1]; carotid artery Section D, 60 mg/kg-body weight abdominal injection
  Blood vessel neointimal layer area: 130852 +/− 77915 μm^2
[1]; carotid artery Section D, 150 mg/kg-body weight abdominal injection
  Blood vessel neointimal layer area: 85273 +/− 15262 μm^2
[1]; carotid artery Section D, 300 mg/kg-body weight abdominal injection
  Blood vessel neointimal layer area: 66654 +/− 23434 μm^2
[1]; whole carotid artery (Table 4), 60 mg/kg-body weight
  Blood vessel neointimal layer area: 150499 +/− 34951 μm^2
[1]; whole carotid artery (Table 4), 150 mg/kg-body weight, P < 0.01
  Blood vessel neointimal layer area: 93371 +/− 14693 ** μm^2
[1]; whole carotid artery (Table 4), 300 mg/kg-body weight, P < 0.01
  Blood vessel neointimal layer area: 64368 +/− 20641 ** μm^2
[2]; 25 and 50 μg/mL
  effect on cell cycle of smooth muscle cells (in words): stagnate the smooth muscle cells in the G0/G1 phase
[2]; 25 μg/mL
  Ratio of cells in cell cycle phase G0/G1: 68.33 +/− 0.05%
  Ratio of cells in cell cycle phase G2/M: 11.3 +/− 1.25%
  Ratio of cells in cell cycle phase S: 20.33 +/− 2.05%
[2]; 50 μg/mL
  Ratio of cells in cell cycle phase G0/G1: 68.9% and 68.86 +/− 5.2%
  Ratio of cells in cell cycle phase G2/M: 12.1 +/− 1.15%
  Ratio of cells in cell cycle phase S: 19.0% and 19.00 +/− 4.3%
[3]; 25 μg/mL
  Growth rate: 0.56 +/− 0.06%
[3]; 50 μg/mL
  Growth rate: 0.32 +/− 0.04%
[3]; 100 μg/mL
  Growth rate: 0.25 +/− 0.03%
[3]; 150 μg/mL
  Growth rate: 0.12 +/− 0.04%
[3]; 200 μg/mL
  Growth rate: 0.10 +/− 0.02%
[3]; Rattus norvegicus, 25 μg/mL, read-out: inhibition rate of smooth muscle cell growth
  inhibition at 25 µg/mL: 43.6%
[3]; Rattus norvegicus, read-out: IC50 of smooth muscle cell growth
  IC50: 27 µg/mL and 143 µM
